Results: paper PMC10452181, “Synthesis and Biological Evaluation of Cyclobutane-Based β3 Integrin Antagonists: A Novel Approach to Targeting Integrins for Cancer Therapy” (Cancers, 2023)
Where two headings read alike, the source gives them in different places.

Assays:
αIIbβ3 = molecular target: T1, αIIbβ3 (Homo sapiens, UniProt P05106+P08514); test: αIIbβ3/fibrinogen purified protein binding ELISA; conditions: for IC50: read-out: IC50 (αIIbβ3/Fg)
T1 construct: purchased Sigma
Description: ELISA assays were performed as previously described with minor modifications. Briefly, serial dilutions of compounds were prepared in dimethyl sulfoxide (DMSO). C8 Maxi Immuno modules (Fisher Scientific) were incubated overnight at 4 °C with 0.5 μg/well of fibrinogen (Sigma) in sterile phosphate buffered saline (PBS, 0.2 g/L KCl, 8.0 g/L NaCl, 0.2 KH2PO4, 1.15 g/L Na2HPO4, pH 7.4). All subsequent wash steps were performed using 25 mM Tris, pH 7.6, 150 mM NaCl, 1 mM MnCl2, 1 mg/mL BSA, and binding/inhibition was carried out in 25 mM Tris, pH 7.6, 150 mM NaCl, 1 mM MnCl2, 1 mM MgCl2, 1 mM CaCl2, 1 mg/mL BSA.
Wells were washed and blocked with a blocking solution (PBS, 0.1% Tween 20, 3% BSA) for 1 h at 37 °C. Compounds were added to the wells at indicated concentrations (final 0.5% DMSO) in the presence of 0.5 µg/well αIIbβ3 (Sigma) and incubated at room temp for 1 h. After 3 washes, primary anti-αIIb (1:200 dilution, Santa Cruz Biotech, Heidelberg, Germany) and antigoat–HRP (1:500 dilution, Dako, Agilent, Santa Clara, CA, USA) were added at room temp for 1 h. The wells were washed and incubated with 0.1 mg/mL tetra-methylbenzidine (Sigma) for 25 min and the reaction was stopped with 1N H2SO4 (100 μL/well). The absorbance was measured at 450 nm using a Multiscan Spectrum reader (Thermo Scientific, Thermofisher, UK) and SkanIT RE (v2.4.4.5) software. Results were plotted as percent binding vs. log concentration and IC50 values determined.

platelet aggregation = test: ADP-induced platelet aggregation in hirudin-treated whole blood (ex vivo); type: cell-based, human; conditions: for % Inhibition (Platelet Aggregation) @ 100 μM: ADP 6.4 μM
Description: 2.7. Platelet Aggregation Assay
Platelet aggregation was measured in hirudin-anticoagulated whole blood from a healthy donor with ADP as agonist (end concentration 6.4 μM) using a Multiplate® impedance aggregometer (Dynabyte Informationssysteme GmbH, Munich, Germany). At 37 °C, cells were charged with 300 μL of saline, 300 μL of blood, 1 μL of compound (0.1% DMSO) and incubated for 3 min. The agonist was added and the increase in electrical impedance measured from 2 electrode pairs/cell for 6 min, transformed into arbitrary units (AU), and the area under the curve was calculated.

M14 = test: Cytotoxicity by MTT assay, 96 h, M14; type: cell-based, human; conditions: MTT, 96 hours
Description: (§1) Before use in cell-based assays of integrin function, the effect of compounds on cell proliferation was tested using the MTT assay to avoid adhesion results being confounded by cell death (Supplementary Table S1). The effect of compounds on cell adhesion was then initially tested at a single, nontoxic concentration to identify active antagonists for further characterisation; those displaying a promising activity in the adhesion assay were tested at a wider range of concentrations to determine the IC50 (Table 2). […] Nevertheless, it is a cost-effective initial screening method. page 4: Table S1. Cytotoxicity of compounds on the cell lines used in the functional assays (measured by MTT assay). Cells (2000 cells/well for Sk-Mel-2; 1 x 10^4 cells/mL for M14) were incubated for 96 hours at 37 ° C in a total volume of 200 μL/well (180 μL medium + 20 μ L test compound solution). After 96 hours, the medium was replaced by fresh medium containing 0.5 mg/ml (end conc.) MTT per well, incubated for 4 h then the plate processed and read as described in the main text. […] ICT9053 41 naphthyridine 1 NHSO2Mes H Ester 52.6 ± 0.6 72.7 ± 9.8 ICT9065 42 naphthyridine 1 H H Ester >100 - ICT9079 43 naphthyridine 0 NHSO2Mes H Ester ~100 - ICT9061 44 naphthyridineT 1 NHSO2Mes H Ester 46.8 ± 10.7 - […] Ester 65.4 ± 11.1 >100 […] Ester 9.6 ± 5.7 >100 […] Ester >100 - […] Ester 54.6 ± 11.0 - […] Ester >5 3.3 ± 0.8 […] ICT9028 51 pyrimidine 2 NHSO2Ph H Acid >100 - ICT9031 52 pyrimidineT 1 NHSO2Mes H Acid >100 - ICT9090 53 pyrimidineT 2 NHSO2Mes H Acid >50 - ICT9029 54 pyrimidineT 2 NHSO2Ph H Acid >100 - ICT9063 55 naphthyridine 1 NHSO2Mes H Acid 61.7 ± 2.8 - […] Acid 45.5 ± 7.9 >100 […] 42.5 ± 1.8 >50 RGDS >50 - T trans configuration of cyclobutane sidechains.

αvβ3 = molecular target: T2, αvβ3 (Homo sapiens, UniProt P05106+P06756); test: Sk-Mel-2 cell adhesion to immobilised fibronectin (cell-binding assay, MTT readout); type: cell-based; conditions: Sk-Mel-2 adhesion to Fn, mean ± SD
T2 construct: endogenous in cells; host or cells: SK-Mel-2 melanoma cells
Description: First, 96-well plates (Corning, VWR) were coated overnight at 4 °C with 0.5 μg/well fibronectin (Sigma). SK-Mel-2 cells were trypsinised, washed and resuspended in RPMI medium only at 10^5 cells/mL. Cells (100 µL/well) were treated with compound (DMSO final concentration 0.1%) at the indicated concentration for 4 hrs on a rotary shaker. Plates were washed (3 × PBS) and blocked with PBS/5% BSA for 2 hrs at 37 °C prior to adding the cells. Cells were incubated on the plates at 37 °C in a humidified chamber with 5% CO2 for 1 hr. The plates were washed 3× with PBS and a 200 µL/well RPMI medium containing 10% FCS added. The plates were incubated overnight at 37 °C as above. Finally, 0.5 mg/mL of 3-(4,5-dimethythiazol-2-yl)-2,5-diphenyl tetrazolium bromide (MTT) was added to each well and the plates incubated for a further 4 h. The medium was removed, and the insoluble formazan dissolved in 150 µL of DMSO. Absorbance was measured at 540 nm using a Thermo Multiskan EX (Thermofisher, UK)and Ascent Software (v2.6). Total binding was determined based on controls lacking any compounds (100% binding) in fibronectin-coated wells and uncoated wells blocked with BSA (0% binding) and corrected for background (no cells, fibronectin-coated).
As an initial test of anti-β3 activity, the ability of compounds to inhibit the adhesion of melanoma cells expressing high levels of αvβ3 and low levels of other RGD-binding integrins such as αvβ5 and α5β1 to immobilised fibronectin was evaluated.
Cells were seeded onto precoated plates in the presence or absence of putative antagonists and the number of adherent cells quantified colorimetrically.

Sk-Mel-2 = test: in vitro; type: cell-based, human
Description: as §1

M14 cells = test: cells; type: cell-based, human; conditions: M14 scratch wound, 24 h, mean ± SD; read-out: Migration IC50
Description: M14 cells (4 × 10^5/mL in RPMI 1640 medium) were seeded in six-well plates and incubated at 37 °C in a 5% CO2 humidified atmosphere for 48 h. The resulting confluent monolayer was scratched with a sterile P200 pipette tip to create a gap (approximately 2 cm in length and 650 μm in width) in the centre of the well. The medium was removed, and the cells washed with Hank’s balanced salt solution (HBSS) (1 mL) and replaced with a medium containing the test antagonist. After 24 h, the cells were washed twice with HBSS and fixed with ice-pre-cooled methanol for thirty minutes at −20 °C. Following hydration with two washes in PBS, the monolayers were counterstained with Harris’s haematoxylin solution for two minutes, then washed in tap water for one minute and left to dry at room temperature. The plates were observed using an inverted microscope, and digital images captured.
The anti-αvβ3 activity of selected compounds was confirmed in a wound-healing assay (Figure 3). A number of cell lines were initially investigated for their suitability in this assay. The Sk-Mel-2 cell line which adhered well to fibronectin in the adhesion assay migrated very slowly; therefore, M14 melanoma cells which combined high levels of αvβ3 with rapid migration and low levels of proliferation over the assay period (Supplementary Figure S4) were selected.

T1 sequence (P08514 32-887 limits assumed): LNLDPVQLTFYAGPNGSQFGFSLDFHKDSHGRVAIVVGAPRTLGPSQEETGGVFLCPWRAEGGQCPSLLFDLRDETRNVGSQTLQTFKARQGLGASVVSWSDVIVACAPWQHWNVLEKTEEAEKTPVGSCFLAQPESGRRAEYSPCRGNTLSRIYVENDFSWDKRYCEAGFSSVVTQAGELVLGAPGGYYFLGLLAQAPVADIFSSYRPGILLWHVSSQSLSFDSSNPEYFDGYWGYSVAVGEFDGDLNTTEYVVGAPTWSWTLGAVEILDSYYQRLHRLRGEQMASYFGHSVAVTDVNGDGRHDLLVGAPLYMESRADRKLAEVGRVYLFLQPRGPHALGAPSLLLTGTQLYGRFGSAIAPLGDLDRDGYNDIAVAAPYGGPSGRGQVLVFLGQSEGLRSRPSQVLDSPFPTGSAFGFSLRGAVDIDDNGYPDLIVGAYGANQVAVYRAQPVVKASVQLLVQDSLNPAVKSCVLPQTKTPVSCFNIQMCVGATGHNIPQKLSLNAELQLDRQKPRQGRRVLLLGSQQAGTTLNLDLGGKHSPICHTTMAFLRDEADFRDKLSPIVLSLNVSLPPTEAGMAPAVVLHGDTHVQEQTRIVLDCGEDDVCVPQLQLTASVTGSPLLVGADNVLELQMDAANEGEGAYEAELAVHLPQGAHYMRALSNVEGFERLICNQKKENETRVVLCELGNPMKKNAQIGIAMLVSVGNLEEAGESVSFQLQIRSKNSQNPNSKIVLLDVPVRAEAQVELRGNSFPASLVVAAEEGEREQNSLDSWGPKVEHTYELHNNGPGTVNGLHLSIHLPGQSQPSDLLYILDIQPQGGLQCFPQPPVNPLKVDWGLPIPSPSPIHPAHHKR
T1 sequence (P08514 891-1039 partner limits assumed): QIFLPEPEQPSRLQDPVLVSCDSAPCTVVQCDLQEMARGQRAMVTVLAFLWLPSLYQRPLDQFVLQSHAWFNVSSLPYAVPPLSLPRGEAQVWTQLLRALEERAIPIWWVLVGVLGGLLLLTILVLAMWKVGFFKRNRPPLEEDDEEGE
T1 sequence (P05106 27-788): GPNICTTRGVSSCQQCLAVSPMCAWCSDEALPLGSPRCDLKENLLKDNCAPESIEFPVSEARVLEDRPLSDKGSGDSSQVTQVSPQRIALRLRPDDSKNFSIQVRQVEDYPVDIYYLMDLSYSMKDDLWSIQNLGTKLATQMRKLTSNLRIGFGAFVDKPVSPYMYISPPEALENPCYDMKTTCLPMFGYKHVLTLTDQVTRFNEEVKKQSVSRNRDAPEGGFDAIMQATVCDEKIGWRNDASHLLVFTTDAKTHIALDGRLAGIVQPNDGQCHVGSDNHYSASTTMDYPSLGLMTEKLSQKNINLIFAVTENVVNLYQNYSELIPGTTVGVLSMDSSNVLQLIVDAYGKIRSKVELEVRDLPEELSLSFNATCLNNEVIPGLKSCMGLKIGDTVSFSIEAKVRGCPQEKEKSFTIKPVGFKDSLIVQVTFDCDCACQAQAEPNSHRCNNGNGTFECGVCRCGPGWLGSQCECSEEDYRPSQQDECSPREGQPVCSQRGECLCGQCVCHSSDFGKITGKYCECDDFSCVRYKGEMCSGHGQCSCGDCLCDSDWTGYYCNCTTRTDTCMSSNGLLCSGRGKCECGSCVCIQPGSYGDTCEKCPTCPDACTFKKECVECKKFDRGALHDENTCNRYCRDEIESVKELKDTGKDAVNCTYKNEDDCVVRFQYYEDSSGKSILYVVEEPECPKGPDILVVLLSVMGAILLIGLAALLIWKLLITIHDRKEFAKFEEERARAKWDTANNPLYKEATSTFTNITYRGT
T2 sequence (P06756 31-889 limits assumed): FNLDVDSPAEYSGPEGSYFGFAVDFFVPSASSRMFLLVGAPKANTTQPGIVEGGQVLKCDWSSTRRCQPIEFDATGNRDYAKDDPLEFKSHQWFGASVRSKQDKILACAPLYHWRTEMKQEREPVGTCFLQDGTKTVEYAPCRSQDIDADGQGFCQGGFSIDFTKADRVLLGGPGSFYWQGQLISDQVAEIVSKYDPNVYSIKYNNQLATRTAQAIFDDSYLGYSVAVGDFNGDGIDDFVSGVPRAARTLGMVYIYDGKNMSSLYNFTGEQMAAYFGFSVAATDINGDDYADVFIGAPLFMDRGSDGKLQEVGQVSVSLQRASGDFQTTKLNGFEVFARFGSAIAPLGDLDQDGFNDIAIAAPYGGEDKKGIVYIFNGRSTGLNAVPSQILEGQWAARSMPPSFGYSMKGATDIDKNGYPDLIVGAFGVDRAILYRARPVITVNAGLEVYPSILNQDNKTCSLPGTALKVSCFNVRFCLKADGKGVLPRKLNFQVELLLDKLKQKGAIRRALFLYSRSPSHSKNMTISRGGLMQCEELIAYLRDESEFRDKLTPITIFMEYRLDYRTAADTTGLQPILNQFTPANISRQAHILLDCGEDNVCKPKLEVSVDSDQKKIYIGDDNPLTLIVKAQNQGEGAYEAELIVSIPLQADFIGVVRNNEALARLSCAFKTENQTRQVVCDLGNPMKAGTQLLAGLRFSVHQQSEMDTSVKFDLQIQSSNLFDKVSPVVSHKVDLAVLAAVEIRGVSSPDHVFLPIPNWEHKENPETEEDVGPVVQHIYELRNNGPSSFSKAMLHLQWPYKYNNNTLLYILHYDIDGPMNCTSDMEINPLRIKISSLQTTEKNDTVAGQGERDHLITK
T2 sequence (P06756 891-1048 partner limits assumed): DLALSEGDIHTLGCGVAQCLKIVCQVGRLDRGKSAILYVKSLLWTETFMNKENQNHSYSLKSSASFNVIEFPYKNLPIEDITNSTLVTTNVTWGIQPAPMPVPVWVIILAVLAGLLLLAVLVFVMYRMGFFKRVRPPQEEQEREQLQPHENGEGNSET
T2 sequence (P05106 27-788): as the sequence (P05106 27-788) above

SMILES | IC50 (αIIbβ3; positive control) | % Inhibition (Platelet Aggregation) @ 100 μM (platelet aggregation) | IC50 (platelet aggregation; ADP-induced) | IC50 (M14) | Adhesion % Inhibition @ 5 μM (αvβ3) | IC50 (Sk-Mel-2) | IC50 (M14 cells) | % Inhibition (αIIbβ3/Fg) @ 50 μM (αIIbβ3; mean ± SD) | Adhesion % Inhibition @ 50 μM (αvβ3) | IC50 (αvβ3) | IC50 (αIIbβ3; mean ± SD)
Cl.Cl.Cl.N=C(N)c1ccc(N2CCN(C3CCN(CC(=O)O)CC3)CC2)cc1 [GR144053, reference compound] | 0.0237 ± 0.0031 µM | 100% | 0.24 µM |  |  |  |  |  |  |  | 
COC(=O)[C@H](CNC(=O)[C@H]1C[C@H](CCCCNc2ncccn2)C1)NS(=O)(=O)c1c(C)cc(C)cc1C [ICT9018 26, (S)-methyl 3-((1r,3r)-3-(4-(pyrimidin-2-ylamino)butyl)cyclobutanecarboxamido)-2-(2,4,6-trimethylphenylsulfonamido)propanoate] |  |  |  | > 100 µM | 20.9 ± 27.5% | 72 ± 6.5 µM | > 10 µM |  |  |  | 
COC(=O)[C@H](CNC(=O)C1CC(CCNc2ncccn2)C1)NS(=O)(=O)c1c(C)cc(C)cc1C (stereo partly drawn) [ICT9019 21, (S)-Methyl 3-((1s,3r)-3-(2-(pyrimidin-2-ylamino)ethyl)cyclobutanecarboxamido)-2-(2,4,6-trimethylphenylsulfonamido)propanoate] |  |  |  | > 100 µM | 35.2 ± 19.1% | 53.8 ± 3.2 µM | 9.5 ± 0.9 µM | 15.6 ± 14.5% | 48.3 ± 4.1% | 50 ± 5 µM | 
COC(=O)[C@H](CNC(=O)[C@H]1C[C@H](CCCNc2ncccn2)C1)NS(=O)(=O)c1c(C)cc(C)cc1C [ICT9020 24] |  |  |  | 36 ± 18.6 µM | 19.1 ± 14.2% | 57.8 ± 1.9 µM | > 10 µM |  |  |  | 
Cc1cc(C)c(S(=O)(=O)N[C@@H](CNC(=O)C2CC(CCNc3ncccn3)C2)C(=O)O)c(C)c1 (stereo partly drawn) [ICT9031 52, (S)-3-((1r,3s)-3-(2-(pyrimidin-2-ylamino)ethyl)cyclobutanecarboxamido)-2-(2,4,6-trimethylphenylsulfonamido)propanoic acid] |  | 11.1% |  |  |  | > 100 µM |  | 96.2 ± 6.3% | 11.1 ± 2.4% | > 50 µM | 1.7 ± 2.4 µM
COC(=O)[C@H](CNC(=O)[C@H]1C[C@H](CCc2ccc3cccnc3n2)C1)NS(=O)(=O)c1c(C)cc(C)cc1C [ICT9053 41, (S)-methyl 3-((1r,3r)-3-(2-(1,8-naphthyridin-2-yl)ethyl)cyclobutanecarboxamido)-2-(2,4,6-trimethylphenylsulfonamido)propanoate] |  |  |  | 72.7 ± 9.8 µM | 27.5 ± 32.9% | 52.6 ± 0.6 µM | > 10 µM | 29.4 ± 17.6% |  | > 5 µM | > 100 µM
COC(=O)[C@H](CNC(=O)C1CC(CCc2ccc3c(n2)NCCC3)C1)NS(=O)(=O)c1ccccc1 (stereo partly drawn) [ICT9057 45, (S)-methyl 2-(phenylsulfonamido)-3-((1r,3r)-3-(2-(5,6,7,8-tetrahydro-1,8-naphthyridin-2-yl)ethyl)cyclobutanecarboxamido)propanoate] |  |  |  | > 100 µM | 59.5 ± 24.0% | 65.4 ± 11.1 µM | 1 ± 0.09 µM |  |  |  | 
COC(=O)[C@H](CNC(=O)[C@H]1C[C@@H](CCc2ccc3c(n2)NCCC3)C1)NS(=O)(=O)c1c(C)cc(C)cc1C [ICT9062 49, (S)-methyl 3-((1s,3s)-3-(2-(5,6,7,8-tetrahydro-1,8-naphthyridin-2-yl)ethyl)cyclobutanecarboxamido)-2-(2,4,6-trimethylphenylsulfonamido)propanoate] |  |  |  | 3.3 ± 0.8 µM | 72.3 ± 9.4% | > 5 µM | 0.15 ± 0.03 µM |  |  |  | 
Cc1cc(C)c(S(=O)(=O)N[C@@H](CNC(=O)C2CC(CCc3ccc4cccnc4n3)C2)C(=O)O)c(C)c1 (stereo partly drawn) [ICT9063 55, (S)-3-{(1r,3r)-[3-(2-[1, 8] Naphthyridin-2-yl-ethyl)-cyclobutanecarbonyl]-amino}-2-(2,4,6-trimethyl-benzenesulfonylamino)-propionic acid] |  | 13.0% |  |  | 20.7 ± 11.9% | 61.7 ± 2.8 µM |  | 84.5 ± 8.6% |  | > 5 µM | 4.1 ± 2.2 µM
Cc1cc(C)c(S(=O)(=O)N[C@@H](CNC(=O)[C@H]2C[C@@H](CCCNc3ncccn3)C2)C(=O)O)c(C)c1 [ICT9090 53, (S)-3-((1s,3s)-{3-[3-(Pyrimidin-2-ylamino)-propyl]-cyclobutanecarbonyl}-amino)-2-(2,4,6-trimethyl-benzenesulfonylamino)-propionic acid] |  | 21.2 ± 7.8% |  |  |  | > 50 µM |  |  | 68.9 ± 10.9% | 11 ± 11.6 µM | 0.39 ± 0.19 µM
